{"source": "patent US10478390B2", "about": "“Use of glycosides to increase hair mass” (L'OREAL, priority 2015, dated 2019)", "system": "hair follicles from biopsies of human scalps", "assay": "Hair follicles cultured in vitro for 8 days: increase in the diameter of the hair shaft (fiber)", "type": "cell-based", "conditions": "for average % of increase of the diameter of the shafts: same test as for proxylane, method states each glycoside at 10 μM, d0 to d8; for average % of increase between D0 and D8: PX 1 mM, hair shaft diameter", "procedure": "The hair follicles come from biopsies of human scalps, from cosmetic surgery operations conducted on white Caucasian women aged 45 to 75 years.\nThe hair follicles are dissected according to the method described in patent application FR 2 736 721 and U.S. Pat. No. 5,712,169, and only the terminal anagen and pigmented hair follicles are studied.\nFreshly dissected hair follicles are introduced into multi-well plates containing 500 μL of William's medium, Invitrogen reference 22551022, enriched with insulin to […], 10 ng/mL of hydrocortisone, 10 μg/mL of L-Glutamine and 0.5% antibiotics (Gibco, reference 15240-096).\nThe C-glycosides are then incubated versus a vehicle alone (control condition), the hair follicles are placed in the incubator (37° C., 5% CO2) and kept alive in these different conditions for 8 days. The culture mediums (of the treated and control conditions) are replaced every two days.\nEach glycoside is studied at 10 μM, (dilution of the solid compound in water), versus the vehicle alone (water) for the control condition.\nEach condition is carried out on 12 different hair follicles, which makes it possible to overcome inter-follicle variabilities, and repeated over 3 different subjects (biopsies of scalp from 3 different volunteers) in order to evaluate the robustness of the results, and to overcome inter-donor variability.\nDuring the 8 days of treatment, all of the hair follicles are observed and photographed every two days in order to evaluate the maintaining of their survival. They are also measured using a binocular magnifier (Leica) provided with a micrometric eyepiece in order to ensure the proper growth thereof.\nThe diameter of the hair shaft is measured using photographs taken of all of the hair follicles at d0 and at d8. Using the Leica Application Suite software (Leica), the hair shaft is cropped, its surface is then calculated and its average diameter is determined. The increase in the diameter of the fiber generated in vitro is determined by: (average diameter at d8 Dd8−average diameter at d0 Dd0)*100/Dd0.", "data": [{"smiles": "COc1cc(CCC(O)CC2OC[C@@H](O)[C@H](O)[C@H]2O)ccc1O", "note": "(stereo partly drawn) [Glycoside 2, (3R,4S,5R)-2-[2-hydroxy-4-(4-hydroxy-3methxyphenyl)butyl] tetrahydro-2Hpyran-3,4,5-triol]", "values": [{"measurement": "average % of increase of the diameter of the shafts", "result": 12.7, "unit": "%"}]}, {"smiles": "O[C@H]1[C@H](O)COC(OCCc2ccccc2)[C@@H]1O", "note": "(stereo partly drawn) [Glycoside 3, 2-phenylethyl D-xylopyranoside]", "values": [{"measurement": "average % of increase of the diameter of the shafts", "result": 16, "unit": "%"}]}, {"smiles": "OC1OC[C@@H](O)[C@H](O)[C@H]1O", "note": "(stereo partly drawn) [Glycoside 4, D-xylose]", "values": [{"measurement": "average % of increase of the diameter of the shafts", "result": 11, "unit": "%"}]}, {"smiles": "CC(O)C[C@@H]1OC[C@@H](O)[C@H](O)[C@H]1O", "note": "(stereo partly drawn) [PX, 1,5-anhydro-6,8-dideoxy-L-gluco-octitol (Proxylane)]", "values": [{"measurement": "thickness of the newly-formed hair shaft", "setting": "for each subject, in the presence of proxylane", "result": "increase in the thickness of the newly-formed hair shaft is observed"}, {"measurement": "average % of increase between D0 and D8", "setting": "individual 1, control +9.7", "result": "+17.5%"}, {"measurement": "average % of increase between D0 and D8", "setting": "individual 2, control +2.7", "result": "+11.2%"}, {"measurement": "average % of increase between D0 and D8", "setting": "individual 3, control +4.3", "result": "+14.5%"}]}]}
